We go through 2 compounds from patent US20230001026A1, “PHAR[…] UNITS AND METHODS FOR CONCOMITANT ADMINISTRATION OF RADIOTRACERS” (LikeMinds, Inc., priority 2019, published 2023).

Data set [1] in a line: sponsored clinical trials: safety and radiation dose of bolus injection. Type of data set: in vivo, human. The method, then: Such buffers include, but are not limited to, ethanol (solvent), sodium hydroxide and acetic acid (pH adjustment), sodium chloride injection (isotonic vehicle). The formulation to be administered as a bolus injection has been shown in sponsored clinical trials to be safe containing a dose of up to about 8 mCi to 10 mCi of radiolabeled DaT2020 and delivered in a total volume of about 2.5 mL to about 5 mL.
The radioactivity of the dose of radiolabeled DaT2020 or of its radiolabeled derivatives, can be determined by one with skill in the art, e.g. by a nuclear medicine imaging technician. In addition, the total radioactivity of the actual administered dose is of relevance and not the volume administered to achieve this dose. The exact radioactive dose of the tracer administered is determined by calculating the difference between the radioactivity in the syringe and delivery system before and after injection. After the dose is delivered, the syringe is filled with a volume of saline equal to the administered dose volume. The syringe content is recounted under the same conditions as used to determine the dose; separately. […]

The target in data set [2] is T1, DAT in the striatum (Homo sapiens, UniProt Q01959). The data set can be described thus: SPECT imaging of radiotracer binding to DAT after i.v. injection. It is filed as in vivo. The arrangement: from tissue; host or cells: striatum of living patients (in vivo SPECT). The text has this: More recently, the SN to striatum pathway of a live patient has become assessible by viewing images of the striatum obtained by various noninvasive imaging techniques. Such non-invasive methods use single photon emission computed tomography (SPECT) assessment measuring the uptake/binding of a radiolabeled imagining agent that binds to dopamine transporters (DAT) in the striatum. Currently, the only SPECT radiopharmaceutical approved for use in the United States, the European Union, and Canada is DaTSCAN® (N-ω-fluoropropyl-2β-carbomethoxy-3β-(4-iodophenyl) nortropane), which is radiolabeled with ^123I. After injection of DaTSCAN, the patient must wait 3 hr for its uptake into systemic circulation, and transition through the blood brain barrier into the parenchyma of the brain tissue until it reaches stable binding to DAT. At that point, radioactivity (counts) can be collected and quantified, and a visual image can be acquired via SPECT. The visual image is compiled for reading by experts who then determine if there is evidence of DAT density loss in the striatum. In the case of a patient with Parkinson's disease, an asymmetrical pattern of binding in the striatum is observed in the image, whereas in the non-parkinsonian tremor patient, the pattern is visible as bilateral and symmetrical (i.e., “normal) (Lewis et al. (2012) Practitioner 1748: 21-24). This information is used by treating physicians in determining diagnosis and subsequent treatment.
T1 sequence (Q01959 whole entry): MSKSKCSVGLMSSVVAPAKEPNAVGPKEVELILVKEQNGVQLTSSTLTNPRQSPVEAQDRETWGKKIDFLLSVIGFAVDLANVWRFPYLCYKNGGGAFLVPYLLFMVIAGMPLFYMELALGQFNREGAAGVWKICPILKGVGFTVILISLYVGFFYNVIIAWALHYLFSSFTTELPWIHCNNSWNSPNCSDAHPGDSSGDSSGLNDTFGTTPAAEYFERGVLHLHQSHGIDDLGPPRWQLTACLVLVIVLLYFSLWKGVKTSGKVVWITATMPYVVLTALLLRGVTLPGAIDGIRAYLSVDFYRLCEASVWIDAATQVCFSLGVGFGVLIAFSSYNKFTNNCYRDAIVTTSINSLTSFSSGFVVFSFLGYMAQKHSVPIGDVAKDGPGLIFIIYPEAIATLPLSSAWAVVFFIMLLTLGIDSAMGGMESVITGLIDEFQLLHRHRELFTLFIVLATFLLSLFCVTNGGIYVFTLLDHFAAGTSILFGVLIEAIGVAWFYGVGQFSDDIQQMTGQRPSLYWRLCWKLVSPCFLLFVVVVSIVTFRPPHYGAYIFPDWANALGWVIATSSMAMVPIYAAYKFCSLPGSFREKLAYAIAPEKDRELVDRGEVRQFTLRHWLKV
SPECT and PET are procedures in which the isotope bound to DaT2020 or derivatives thereof is measured once the agent has been administered and has reached stable binding in the ROI. Once entering the blood stream, it travels throughout the body (e.g., brain, liver, kidney, heart, lungs, and the peripheral vascular system) and binds to DAT in various regions of the body including the striatum. The time it takes to reach stable binding (to eliminate background noise to form a clearer image) depends on the ROI and the depth of the tissue penetrated by the agent.
In SPECT, the single emitted photon passes into the camera and strikes a scintillation crystal which, in turn, is viewed by a large number of photomultiplier tubes. The output voltages generated by the photomultiplier tubes are fed to a position circuit which produces four output signals. These signals contain information about the position and intensity of where the photon struck the crystal (scintillations). These signals (which “unblank” or “light up” the receiver, e.g., a cathode ray oscilloscope) for each photon are then fed into the memory circuitry of a computer and stored. […] Therefore, one can obtain counts and process them for quantitation at any single moment or over varying periods of time during a single scan session. In order to construct an image, a scan session must collect millions of counts over time in order to produce enough detail for a human reader to evaluate. […]
SPECT acquisition is performed on a SPECT/CT or stand-alone SPECT with at least two imaging heads fitted with collimators (parallel-beam and fan beam collimators with manufacturer specified (or measured according to NEMA standards) planar system resolution of <8 mm FWHM (in ‘air’ at 10 cm distance). Raw projection data (or counts) are acquired as described in Djang et al. (2013) Nuclear Med. Mol. Imaging 47(2):73-80), step-and-shoot mode with angle increments of 3° can be used. […]

Data set [3] has as its target DAT (Homo sapiens, UniProt Q01959). As to conditions: package insert; cited from earlier work.
In data set [4] the target is T1, DAT in the striatum. As to conditions: cited from earlier work; for time after injection until binding to striatal DAT becomes stable: post-injection, before SPECT imaging.

Where “and” joins values, the source holds several entries; their conditions need not be identical. Identical values can stand only once. Like-named read-outs stand apart in the source and are kept apart here.

Chain of DAT (Q01959 whole entry, species assumed): as the sequence (Q01959 whole entry) above

On to `COC(=O)C1C(c2ccc(F)cc2)CC2CCC1N2C/C=C/[123I]` (stereo not drawn) [DaT2020, [^123I]-E-2β-carbomethoxy-3β-(4-fluorophenyl)-N-(3-iodo-E-allyl) nortropane], for which the “safety of bolus injection formulation” value in data set [1] (dose of up to about 8 mCi to 10 mCi, total volume about 2.5 mL to about 5 mL) is “safe”. Also, the effective dose result in data set [1] (for 5 mCi of radiolabeled DaT2020) was “approximately 4.3 mSv”. Further, the “time after administration at which stable binding occurs” value in data set [2] (after administration, scanning can begin) was determined as 15 min. In data set [2] (during scan after administration), the “time at which captured energy (counts) stabilizes” value was 14 to 18 min. Besides, in data set [2] (post i.v. injection), the “SPECT image availability after i.v. injection time” value lay within 45 to 60 min and the “time of wash-out from DAT receptors in dopaminergic neurons” value is no more than 60 min. In data set [2] (scan starting 15 min after administration), the “scan time over which sufficient data for an image are collected” value is given as 30 min.
As to `COC(=O)[C@H]1[C@@H](c2ccc(I)cc2)C[C@@H]2CC[C@H]1N2CCCF` [DaTSCAN, N-ω-fluoropropyl-2β-carbomethoxy-3β-(4-iodophenyl) nortropane], the “DAT sites bound for every one SERT site” value in data set [3] is “two to three”. In addition, in data set [4] (123I-labeled tracer), the half-life (commonly how long it takes for the measured level to halve) was 13.2 h. Further, in data set [4] (after administration), the “earliest start of scanning procedure after administration” value is listed as “at least 180 min”. In data set [4] (after stable binding is reached 3 hr post-injection), the “duration for which binding remains stable” value is 3 h. Further, in data set [4] (post i.v. injection, comparator, 'or more'), the “time of wash-out from DAT receptors in dopaminergic neurons” value is 180 to 240 min. Moreover, in data set [4] (post i.v. injection, comparator), the “SPECT image availability after i.v. injection time” value was 180 to 240 min. In addition, the “time after injection until binding to striatal DAT becomes stable” value was 3 h and 3 to 6 h in data set [4]; 3 h in data set [4] (listed as [^123I]-FP-CIT). The “fraction of tracer available for DAT transporter binding in the brain tissue” value in data set [4] (rest bound to transporters other than DAT, package insert) is “about 7%”.
